Data published in ChEMBL document CHEMBL1201862, “PubChem BioAssay data set” (2004).
Activity calls are given as the source filed them. Unless noted, the calls are words filed in the database; no cut-off is given here.

Assays:
[1] = target: T1, Dual specificity protein phosphatase 3 (Homo sapiens, UniProt P51452); assay: VHR phosphatase inhibition, dose response, selectivity assay for STEP inhibitor project, biochemical (AID 602374); assay type: functional; conditions: read-out: IC50_Mean
[2] = target: T2, Tyrosine-protein phosphatase non-receptor type 22 (Homo sapiens, UniProt Q9Y2R2); assay: LYP1 Fluorescent Assay using OMFP substrate for In Vitro dose response studies. [Related pubchem assays (depositor defined):AID1779, AID1784, AID435024]
T2 sequence (Q9Y2R2 whole entry): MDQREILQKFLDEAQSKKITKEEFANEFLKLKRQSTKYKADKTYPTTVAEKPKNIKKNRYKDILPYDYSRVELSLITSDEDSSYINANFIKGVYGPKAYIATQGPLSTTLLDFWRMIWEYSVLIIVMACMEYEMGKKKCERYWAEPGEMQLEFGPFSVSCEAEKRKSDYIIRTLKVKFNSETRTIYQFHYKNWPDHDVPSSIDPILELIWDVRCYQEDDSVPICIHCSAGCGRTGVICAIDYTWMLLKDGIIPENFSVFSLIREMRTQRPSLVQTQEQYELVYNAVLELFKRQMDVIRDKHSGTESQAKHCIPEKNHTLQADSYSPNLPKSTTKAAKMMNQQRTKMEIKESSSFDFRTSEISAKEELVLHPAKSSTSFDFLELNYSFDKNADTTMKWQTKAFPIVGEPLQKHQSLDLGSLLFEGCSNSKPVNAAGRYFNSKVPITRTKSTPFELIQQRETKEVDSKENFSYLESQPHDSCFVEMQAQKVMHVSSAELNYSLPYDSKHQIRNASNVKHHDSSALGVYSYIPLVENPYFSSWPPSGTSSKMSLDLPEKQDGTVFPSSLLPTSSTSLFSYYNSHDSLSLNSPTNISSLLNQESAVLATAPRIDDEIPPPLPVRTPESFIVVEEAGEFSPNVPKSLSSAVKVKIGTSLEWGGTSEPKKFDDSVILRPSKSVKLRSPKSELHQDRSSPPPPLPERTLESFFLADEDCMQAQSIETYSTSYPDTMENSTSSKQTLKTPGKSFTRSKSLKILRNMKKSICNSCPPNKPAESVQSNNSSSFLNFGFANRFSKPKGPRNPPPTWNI

[3] = target: T3, Tyrosine-protein phosphatase non-receptor type 7 (Homo sapiens, UniProt P35236); assay: HTS HePTP Fluorescent Assay using OMFP substrate for In Vitro dose response studies. [Related pubchem assays (depositor defined):AID1059, AID1077, AID1784, AID2068, AID2085, AID435032, AID521]; assay type: functional
T3 sequence (P35236 whole entry): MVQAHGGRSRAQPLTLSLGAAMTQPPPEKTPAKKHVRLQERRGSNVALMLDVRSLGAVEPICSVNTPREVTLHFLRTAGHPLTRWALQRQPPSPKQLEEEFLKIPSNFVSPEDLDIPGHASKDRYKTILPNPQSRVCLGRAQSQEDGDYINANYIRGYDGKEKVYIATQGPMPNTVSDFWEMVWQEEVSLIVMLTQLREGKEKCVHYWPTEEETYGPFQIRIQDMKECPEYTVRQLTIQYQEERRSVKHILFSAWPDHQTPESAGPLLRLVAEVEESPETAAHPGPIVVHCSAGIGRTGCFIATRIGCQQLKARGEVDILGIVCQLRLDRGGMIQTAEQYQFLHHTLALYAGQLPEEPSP

[4] = target: T1, Dual specificity protein phosphatase 3; assay: SAR VHR1 Fluorescent Assay for In Vitro dose response studies. [Related pubchem assays (depositor defined):AID1654, AID1661, AID1878, AID1992, AID2004, AID2070, AID2085]; assay type: functional
[5] = test system: HEK293; assay: membrane integrity loss in HEK cells – cell-based, fluorescence, cytotoxicity control for IDE activator project, dose response (AID 588440); assay type: functional; conditions: Homo sapiens;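 further: cytotoxicity by LDH release measuring loss of membrane integrity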

T1 sequence (P51452 whole entry): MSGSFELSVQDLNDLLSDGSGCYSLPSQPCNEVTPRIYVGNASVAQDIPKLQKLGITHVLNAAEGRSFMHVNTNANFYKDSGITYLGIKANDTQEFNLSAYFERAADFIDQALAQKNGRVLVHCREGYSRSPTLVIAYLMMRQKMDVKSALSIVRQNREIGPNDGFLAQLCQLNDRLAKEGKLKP

Compound | IC50 [1] | IC50 [2] | IC50 [3] | IC50 [4] | IC50 [5]
CCOC(=O)c1sc2nc3c(SCC(=O)O)cc(C(=O)c4ccccc4O)cn3c(=O)c2c1C | 0.549 µM (active) | > 99 µM (inactive) | > 99 µM (inactive) | 0.382 µM (active) | 
O=c1oc2c(O)cccc2cc1-c1nc2ccccc2[nH]1 |  |  |  |  | > 89.3 µM (inactive)
